# System: U2OS cells stably expressing HMGB1-GFP
# Assay: HMGB1 release (loss of nuclear HMGB1-GFP fluorescence)
# Assay type: cell-based, human
# Settings: lurbinectedin 1 nM to 1 μM, MTX 1 and 3 μM, medium to late time points
# Procedure: (a) Human osteosarcoma U2OS (a), human breast cancer HCC70 (b) human colon cancer HT29 cells (c) and murine methylcholantrene-induced fibrosarcoma MCA205 cells (d) were treated with lurbinectedin (Lurbi, 1 nM, 10 nM, 100 nM and 1 μM) for the indicated times. Subsequently, the cells were stained with 1 μM Hoechst 33342 and 1 μM propidium iodide and assessed for the loss of viability by automated image acquisition. Images were segmented, cellular debris was excluded and the number of cells with normal nuclear morphology was enumerated. Cells stably expressing CALR-GFP were treated as above. Following the cells were fixed with 3.7% of PFA, stained with 1 μM Hoechst 33342 and assessed by automated image acquisition. Images were segmented, cellular debris was excluded and CALR-GFP granularity (a surrogate marker of CALR exposure) was evaluated in the cytoplasmic region of cells with normal nuclear morphology. Wild type cells were treated as above and then assessed for cytoplasmic quinacrine granularity (after staining with the ATP-sensitive dye quinacrine together with Hoechst 33342) by automated image acquisition, segmentation and analysis. Cells stably expressing HMGB1-GFP were treated as above and then assessed for nuclear HMGB1-GFP fluorescence intensity. The cells were fixed and stained with Hoechst 33342 and images were acquired, segmented and analyzed. […]
smiles,measurement,value
COc1ccc2[nH]c3c(c2c1)CCN[C@]31CS[C@@H]2c3c(OC(C)=O)c(C)c4c(c3[C@H](COC1=O)N1[C@@H]2[C@H]2c3c(cc(C)c(OC)c3O)C[C@@H]([C@@H]1O)N2C)OCO4 [lurbinectedin],nuclear GFP signal (HMGB1-GFP),significant decrease

# Reference: patent US20250295656A1, “COMBINATION OF LURBINECTEDIN AND IMMUNE CHECKPOINT INHIBITORS” (priority 2020, published 2025)
